Literature values as cited in patent publication US20200113803A1, “ANHYDROUS COMPOSITION OF SMALL-MOLECULE POLYSACCHARIDES AND APPLICATION THEREOF” (SAGE PHARMACEUTICALS, INC., priority 2016, published 2020).

Conditions: background statement

Hyaluronic acid [HA]
ability of HA to hold water: up to 1000 ml water for 1 g of HA
